Source: PubChem BioAssay AID624344 (Sanford-Burnham Center for Chemical Genomics, 2012)
Activity calls are given as the source filed them. The rule behind the calls is not given here. Square brackets hold non-standard residues; d marks the D form. Peptide text beside a SMILES is read from it. * marks the point of attachment. NMeY = CN[C@@H](Cc1ccc(O)cc1)C(=O)O; NMeF = CN[C@@H](Cc1ccccc1)C(=O)O; 2Abz = Nc1ccccc1C(=O)O; CH2Cl = ClC*

Experiments:
Cytotoxicity = test: inhibitors of PAF-induced NFkB signaling in CF airway cells, dose response, cell-based, uHTS hits, panel, cytotoxicity readout (AID 624344); conditions: CF bronchial epithelial cells, mean of runs
[1] = as above; conditions: CF bronchial epithelial cells, PAF-induced NFkB reporter inhibition; with PAF, mean of runs

Row | Structure (SMILES) | IC50 (Cytotoxicity) | IC50 [1]
1 | CC1CCc2c(sc3ncnc(N4CCOCC4)c23)C1 (centres undefined) | 20.4 µM | 4.1 µM
2 | COc1ccc(C(=O)Nc2cccc(NC(=O)c3ccc(OC)c(OC)c3)n2)cc1OC | 1.49 µM | 3.69 µM
3 | O=[N+]([O-])C1C(c2ccccc2)C12c1ccccc1-c1ccccc12 (centres undefined) | 64.1 µM (inactive) | inactive
4 | CN(c1ncnc(N)c1[N+](=O)[O-])C1CCCCC1 | > 79 µM (inactive) | 1.09 µM
5 | NC(N)=NN=C(c1ccc(F)cc1)c1ccc(C(F)(F)F)cc1 | 25.3 µM | 5.87 µM
6 | CCCCN(CCCC)c1ncnc2nc[nH]c12 | 41.4 µM | 5.64 µM
7 | Cc1c(C=O)c(C=O)c(C)n1Cc1ccccc1 | 4.67 µM | 1.64 µM
8 | O=C(Nc1ccccc1)c1cc2ccccc2c(=O)s1 | > 79 µM (inactive) | 5.4 µM
9 | CC1(Cc2ccc(Cl)cc2)C(=O)Nc2ccc(-c3cccnc3)cc21 (centres undefined) | 26.6 µM | 1.28 µM
10 | CC(C)C[C@H](CO)Nc1nc(Nc2cccc(Cl)c2)c2ncn(C(C)C)c2n1 | 36.2 µM | 5.12 µM
11 | NC(=S)N1OC[C@@H]2COc3ccc4ccccc4c3[C@@H]21 | 31.2 µM | 4.75 µM
12 | C/C(=N\Nc1cc(N2CCOCC2)ncn1)c1cccc([N+](=O)[O-])c1 | 14.4 µM | 4.21 µM
13 | O=[N+]([O-])c1ccc(NC(=S)NCCc2ccc(F)cc2)cc1 | 4.52 µM | 4.58 µM
14 | C=C1C(=O)O[C@@H]2[C@H]1CC[C@H](C)[C@]1(O)CCC(=O)[C@@]21C | 40 µM | 2.37 µM
15 | CCCCCCc1cc2cc(C(=O)OCC)c(=O)oc2cc1O | 20.2 µM | 7.22 µM
16 | Cc1nc2sc(C(N)=O)c(N)c2c2c1CCCC2 | 64 µM (inactive) | 1.18 µM
17 | O=C(CC12CC3CC(CC(C3)C1)C2)Nc1nncs1 | 54.5 µM (inactive) | inactive
18 | CS(=O)(=O)c1ncc(Cl)c(C(=O)Nc2ccc(OC(F)F)cc2)n1 | 3.58 µM | 1.78 µM
19 | C=C1C(=O)C23C(O)C1CCC2C12COC3(O)C(O)C1C(C)(C)CCC2O (centres undefined) | 5.5 µM | 3.69 µM

Row | Structure (SMILES) | IC50 (Cytotoxicity) | IC50 [1]
20 | CC(=O)OCCCNc1cc(Sc2ccc(Cl)cc2)c2nonc2c1[N+](=O)[O-] | 11.1 µM | 13 µM
21 | CC(C)OC(=O)c1cccc(C(=O)Nc2cccc(NC(=O)c3cccc(C(=O)OC(C)C)n3)n2)n1 | > 79 µM (inactive) | 4.5 µM
22 | C=CC[C@@H](CC(=O)N(CCO)Cc1ccccc1)C(=O)NC[C@H](OC(=O)[C@@H](CC=C)Cc1ccc(F)cc1)c1ccccc1 | 4.23 µM | 4.05 µM
23 | COc1ccc(S(=O)(=O)N2c3ccc(F)cc3CCC2C)cc1 (centres undefined) | > 79 µM (inactive) | inactive
24 | COc1cc(O)c(CC=C(C)C)c(O)c1C(=O)CCc1ccc(O)cc1 | 41.5 µM | 5 µM
25 | COc1ccc(C(C(=O)NCC2CCCO2)N(Cc2cccs2)C(=O)c2snc(C(N)=O)c2N)cc1 (centres undefined) | 44.2 µM | 3.11 µM
26 | Nc1ncc([N+](=O)[O-])c(N2CCCCCC2)n1 | > 79 µM (inactive) | 2.28 µM
27 | COc1ccc(-c2cc(NC=O)c3ncc(-c4ccc(OC)c(OC)c4)n3c2)c(OC)c1 | 29.8 µM | 11.7 µM
28 | CCC1(O)C(=O)OCc2c1cc1n(c2=O)Cc2cc3cc(O)ccc3nc2-1 (centres undefined) | 1.09 µM | 0.284 µM
29 | CCC1(O)CC2CN(CCc3c([nH]c4ccccc34)C(C(=O)OC)(c3cc4c(cc3OC)N(C=O)C3C(O)(C(=O)OC)C(OC(C)=O)C5(CC)C=CCN6CCC43C65)C2)C1 (centres undefined) | 63.1 µM (inactive) | 3.67 µM
30 | O=C(Nc1ccncc1)c1c(Cl)cccc1Cl | 38.9 µM | 5.03 µM
31 | N#CC(C#N)=C1SC(=Nc2ccccc2)C(=Nc2ccccc2)N1c1ccccc1 | 12.4 µM | 8.12 µM
32 | N#CC(C#N)c1ccnc2ccccc12 | 28.3 µM | 3.17 µM
33 | NC(=Nc1ccccc1)NN=Cc1c[nH]c2ccccc12 | 23.3 µM | inactive
34 | COc1ccc2nc(Nc3nc(CSc4nc5ccccc5[nH]4)cc(=O)[nH]3)nc(C)c2c1 | 44 µM | 5.97 µM
35 | Cc1ccc(S(=O)(=O)Nc2cccc3cccnc23)c([N+](=O)[O-])c1 | > 79 µM (inactive) | 2.84 µM
36 | CCOc1ccc(Nc2ncnc3ccc([N+](=O)[O-])cc23)cc1 | 21.4 µM | 1.67 µM
37 | FC(F)(F)c1nnc2c(Sc3ccc(Cl)cc3)nc3ccccc3n12 | 1.03 µM | 0.859 µM
38 | CC(=O)NC(CC(C)C)C(=O)NC(Cc1ccccc1)C(=O)CCl (stereo not drawn) (Ac-Leu-Phe-CH2Cl; configuration not given here) | 17.6 µM | 2.83 µM

Row | Structure (SMILES) | IC50 (Cytotoxicity) | IC50 [1]
39 | CC(C)C[C@H]1CNC(=S)N1C[C@H]1CCCN1C[C@H](Cc1ccccc1)N1C[C@H](Cc2ccc(O)cc2)N(CC2CCCCCC2)C1=S | 28.6 µM | 15.3 µM
40 | Clc1ccccc1C1=Nn2c(nnc2-c2ccncc2)SC1 | > 79 µM (inactive) | 0.624 µM
41 | CC(C)C[C@@H]1NC(=O)[C@H](Cc2ccccc2)N(C)C(=O)[C@H](C)NC(=O)c2ccccc2NC(=O)[C@H](Cc2ccc(O)cc2)N(C)C1=O (cyclo([2Abz]A[NMeF]L[NMeY])) | 6.59 µM | 3.42 µM
42 | O=c1c(O)c(-c2ccccc2)oc2cc(O)cc(O)c12 | 54 µM (inactive) | 3.27 µM
43 | CC(=C/c1ccccc1)/C=N/n1c(-c2ccncc2)n[nH]c1=S | 65.2 µM (inactive) | 0.43 µM
44 | CC(C)(C)S(=O)N1Cc2cc(C(=O)NCC(F)(F)F)nc(-c3cccc(-c4cccc(F)c4)c3)c2[C@@H]1CCO (some centres undefined) | 16 µM | 5.86 µM
45 | COc1cc(C2c3cc4c(c(O)c3CC3COC(=O)C32)OCO4)cc(OC)c1OC (centres undefined) | > 79 µM (inactive) | inactive
46 | O=C(Nc1cccc(Cl)c1)Nc1csc([N+](=O)[O-])c1 | 0.788 µM | 4.12 µM
47 | O=C(c1cncc(Br)c1)N1CCc2ccccc2C1 | > 79 µM (inactive) | 8.73 µM
48 | CCn1c(Oc2ccccc2F)nc2c1c(=O)n(C)c(=O)n2C | > 79 µM (inactive) | 3.57 µM
49 | COc1cc(C2c3cc4c(cc3C(O)C3COC(=O)C23)OCO4)cc(OC)c1OC (centres undefined) | > 79 µM (inactive) | > 79 µM (inactive)
50 | COc1ccc(CNc2nn3c(-c4cccc(C(=O)N(C)C)c4)cnc3s2)cc1 | 33.6 µM | 2.46 µM
51 | Cc1c(O)ccc2c(-c3ccccc3)cc(=O)oc12 | 70.9 µM (inactive) | 3.98 µM
52 | CC(C)c1nc(NCCO)c(C#N)c2c1CCCC2 | > 79 µM (inactive) | 5.77 µM
53 | Cc1ccc(N(C)C(=O)c2cc(S(=O)(=O)N3CCCCC3)c[nH]2)cc1 | > 79 µM (inactive) | 11.5 µM
54 | CC(=O)Oc1c(C(=O)c2nnc(C)o2)c(=O)n(Cc2ccccc2)c2ccccc12 | 14.9 µM | 2.36 µM
55 | C[C@@H]1CC=C[C@H]2[C@H]1C(=O)N(Cc1ccccc1)[C@H]2c1ccc2ccccc2c1Br | 12.9 µM | 5.04 µM
56 | CC1(C)CC(=O)C=C(NC2=CC3OC(c4ccccc4)OCC3OC2=O)C1 (centres undefined) | 16.9 µM | 3.35 µM
57 | CCCN(CC)c1ncnc2[nH]ncc12 | 36.3 µM | 1.55 µM
